ChEMBL document CHEMBL1201862, “PubChem BioAssay data set” (2004)
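48-hour exposure; five concentrations; linearly interpolated endpoints. The concentration for 50% growth inhibition is given as GI50.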 Activity calls are given as the source filed them. No stated cut-off is given here; in the data, active = GI50 up to about 1.1 µM and inactive = higher.

What was measured:
Test in all cases: NCI anticancer screen, dose series, 48 h
SN12C = test system: SN12C
DU-145 = test system: DU-145
HCC 2998 = test system: HCC 2998
EKVX = test system: EKVX
SW-620 = test system: SW-620
HCT-116 = test system: HCT-116
K562 = test system: K562
BT-549 = test system: BT-549
MCF7 = test system: MCF7
Hs-578T = test system: Hs-578T
SF-539 = test system: SF-539
LOX IMVI = test system: LOX IMVI
M14 = test system: M14
HT-29 = test system: HT-29
SR = test system: SR
SF-295 = test system: SF-295
NCI-H522 = test system: NCI-H522
UO-31 = test system: UO-31
A498 = test system: A498

SMILES | GI50 (SN12C) | GI50 (DU-145) | GI50 (HCC 2998) | GI50 (EKVX) | GI50 (SW-620) | GI50 (HCT-116) | GI50 (K562) | GI50 (BT-549) | GI50 (MCF7) | GI50 (Hs-578T) | GI50 (SF-539) | GI50 (LOX IMVI) | GI50 (M14) | GI50 (HT-29) | GI50 (SR) | GI50 (SF-295) | GI50 (NCI-H522) | GI50 (UO-31) | GI50 (A498)
C/C=C/[C@@]1(OC(=O)c2ccccc2)C[C@@H]2CCCC[C@@H]21 | 17.5 µM (inactive) | 17.5 µM (inactive) | 21.1 µM (inactive) | 16.7 µM (inactive) | 23 µM (inactive) | 16 µM (inactive) | 19.8 µM (inactive) | 14.9 µM (inactive) | 18.9 µM (inactive) | 13.8 µM (inactive) | 17.5 µM (inactive) | 21.9 µM (inactive) | 17.9 µM (inactive) | 16.3 µM (inactive) | 18.1 µM (inactive) | 18.6 µM (inactive) | 15.7 µM (inactive) | 11 µM (inactive) | 
O=C(OCCN=c1c2ccccc2ccc2ccccc12)c1ccc([N+](=O)[O-])cc1 | > 100 µM (inactive) | > 100 µM (inactive) | > 100 µM (inactive) | > 100 µM (inactive) | > 100 µM (inactive) | > 100 µM (inactive) | > 100 µM (inactive) | > 100 µM (inactive) | > 100 µM (inactive) | > 100 µM (inactive) | > 100 µM (inactive) | > 100 µM (inactive) | > 100 µM (inactive) | > 100 µM (inactive) | > 100 µM (inactive) | > 100 µM (inactive) |  | > 100 µM (inactive) | 
Cc1ccc(S(=O)(=O)N/N=C2\C3CC4CC(C3)C2C4)cc1 (configuration not stated) | > 100 µM (inactive) | > 10 µM (inactive) | > 100 µM (inactive) |  | > 100 µM (inactive) | > 10 µM (inactive) | > 100 µM (inactive) | > 100 µM (inactive) | > 100 µM (inactive) | > 100 µM (inactive) | > 100 µM (inactive) | > 100 µM (inactive) | > 100 µM (inactive) | > 100 µM (inactive) | > 100 µM (inactive) | > 100 µM (inactive) | > 100 µM (inactive) | > 100 µM (inactive) | 
O=C(Oc1cncc(Cl)c1)c1cc2ccccc2sc1=O | 60.3 µM (inactive) | 89.1 µM (inactive) | 32.7 µM (inactive) | > 100 µM (inactive) | 35.2 µM (inactive) | 78.3 µM (inactive) | 31.7 µM (inactive) | 57.7 µM (inactive) | 39.4 µM (inactive) | 38.9 µM (inactive) | 18.5 µM (inactive) | 37.3 µM (inactive) | 33.3 µM (inactive) | 86.1 µM (inactive) | 19.6 µM (inactive) | 96.2 µM (inactive) | 19.5 µM (inactive) | > 100 µM (inactive) | 
CC(=O)OCC1OC(n2c(C)c(/N=N/c3ccc(C)cc3)c(C)c(C#N)c2=S)C(OC(C)=O)C(OC(C)=O)C1OC(C)=O (configuration not stated) | > 100 µM (inactive) | > 100 µM (inactive) | > 100 µM (inactive) |  | > 100 µM (inactive) | > 100 µM (inactive) | > 100 µM (inactive) | > 100 µM (inactive) | > 100 µM (inactive) | 23.5 µM (inactive) | 39.3 µM (inactive) | > 100 µM (inactive) | 48.6 µM (inactive) | > 100 µM (inactive) | > 100 µM (inactive) | 90.6 µM (inactive) |  | > 100 µM (inactive) | 
CC(C)=CCc1c2c(c3occ(-c4ccc(O)cc4)c(=O)c3c1O)CC(C(C)(C)O)O2 (configuration not stated) [SENEGALENSIN] | 19.6 µM (inactive) | 15.5 µM (inactive) | 11.2 µM (inactive) |  | 21.7 µM (inactive) | 16.7 µM (inactive) | 17.2 µM (inactive) | 17 µM (inactive) | 12.8 µM (inactive) | 36.1 µM (inactive) | 20.1 µM (inactive) | 14.9 µM (inactive) | 14.5 µM (inactive) | 12 µM (inactive) |  | 12.1 µM (inactive) | 15.8 µM (inactive) | 10 µM (inactive) | 16.1 µM (inactive)
CCCC(=O)OCC(COC(=O)CCC)OC(=O)CCC [TRIBUTYRIN] | > 100 µM (inactive) | 29.9 µM (inactive) | > 100 µM (inactive) | > 100 µM (inactive) | > 100 µM (inactive) | 48.8 µM (inactive) | 64.7 µM (inactive) | 97.3 µM (inactive) | > 100 µM (inactive) | 57.9 µM (inactive) | 62.8 µM (inactive) | 82 µM (inactive) | 58.5 µM (inactive) | > 100 µM (inactive) |  | > 100 µM (inactive) | 17.9 µM (inactive) | 34.4 µM (inactive) | > 100 µM (inactive)
Nc1nc(N)c2cc(Sc3cccc(C(F)(F)F)c3)ccc2n1 [WR-159412] | 0.729 µM (active) | 0.982 µM (active) | 1.39 µM (inactive) | 3.56 µM (inactive) |  | 0.237 µM (active) | 0.0883 µM (active) | 6.07 µM (inactive) | 2.86 µM (inactive) | 2.66 µM (inactive) | 3.17 µM (inactive) |  | 1.14 µM (inactive) | 3.62 µM (inactive) | 0.843 µM (active) | 0.656 µM (active) | 2.7 µM (inactive) | 1.2 µM (inactive) | 
